Reference: patent US10561739B2, “Targeted pyrrolobenzodiazapine conjugates” (priority 2010, dated 2020)
pIC50: −log10 of the molar value.

Columns and labels:
Assay type in all cases: cell-based
THP-1 cells = test: Free drug 48 hour Cell Titer Glo cytotoxicity, THP-1; settings: Homo sapiens, Table 3, 48 hours, read-out: IC50 Summary for Free Drugs, THP-1
Description: (§1) Referring to the following Table 3, the activities of compounds 23, 25, are compared to that of compound 11 on 786-O, Caki-1, MCF-7, HL-60, THP-1, HEL, and TF1 cells. Cells were plated in 150 μL growth media per well into black-sided clear-bottom 96-well plates (Costar, Corning) and allowed to settle for 1 hour in the biological cabinet before placing in the incubator at 37° C., 5% CO2. The following day, 4× concentration of drug stocks were prepared, and then titrated as 10-fold serial dilutions producing 8-point dose curves and added at 50 μl per well in duplicate. Cells were then incubated for 48 hours at 37° C., 5% CO2. Cytotoxicity was measure by incubating with 100 μL Cell Titer Glo (Promega) solution for 1 hour, and then luminescence was measured on a Fusion HT plate reader (Perkin Elmer). Data was processed with Excel (Microsoft) and GraphPad (Prism) to produce dose response curves and IC50 values were generated and data collected.

786-O cells = test: Free drug 48 hour Cell Titer Glo cytotoxicity, 786-O; settings: Homo sapiens, 786-0, Table 3, 48 hours, read-out: IC50 Summary for Free Drugs, 786-O
Description: as §1

Caki-1 cells = test: Free drug 48 hour Cell Titer Glo cytotoxicity, Caki-1; settings: Homo sapiens, Table 3, 48 hours, read-out: IC50 Summary for Free Drugs, Caki-1
Description: as §1

HEL cells = test: Free drug 48 hour Cell Titer Glo cytotoxicity, HEL; settings: Homo sapiens, Table 3, 48 hours, read-out: IC50 Summary for Free Drugs, HEL
Description: as §1

HL-60 cells = test: Free drug 48 hour Cell Titer Glo cytotoxicity, HL-60; settings: Homo sapiens, Table 3, 48 hours, read-out: IC50 Summary for Free Drugs, HL-60
Description: as §1

A2780 parental cell line = test: A2780 assay (MTT cytotoxicity); settings: Homo sapiens, 72 hours
Description: The A2780 parental cell line was grown in Dulbecco's Modified Eagles' Media (DMEM) containing ˜10% Foetal Calf Serum (FCS) and ˜1% 200 mM L-Glutamine solution and grown in Corning Cellbind 75 cm^2 flasks.
A 190 μl cell suspension was added (at 1×10^4) to each well of columns 2 to 11 of a 96 well plate (Nunc 96F flat bottom TC plate), 190 μl of media was added to each well of columns 1 and 12. The media was Dulbecco's Modified Eagles' Media (DMEM) (which included ˜10% Foetal Calf Serum (FCS) and ˜1% 200 mM L-Glutamine solution).
Plates were incubated overnight at 37° C. before addition of drug if cells were adherent, 200 μM of the test compound solutions (in 100% DMSO) were serially diluted across a 96 well plate. Each resulting point was then further diluted 1/10 into sterile distilled water (SDW).
To the cell negative blanks and compound negative control wells, 10% DMSO was added at 5% v/v. Assay plates were incubated for the following durations at 37° C. in 5% CO2 in a humidified incubator for 72 hours. Following incubation, MTT solution to a final concentration of 1.5 μM was added to each well. The plates were then incubated for a further 4 hours at 37° C. in 5% CO2 in a humidified incubator. […]
Plates were read at 540 nm absorbance using an Envision plate reader. Data was analysed using Microsoft Excel and GraphPad Prism and IC50 values obtained.

TF1a cells = test: Free drug 48 hour Cell Titer Glo cytotoxicity, TF1a; settings: TF-1a, Table 3, 48 hours, read-out: IC50 Summary for Free Drugs, TF1a
Description: as §1

MCF-7 cells [1] = test: Free drug 48 hour Cell Titer Glo cytotoxicity, MCF-7; settings: Homo sapiens, MCF7, Table 3, 48 hours, read-out: IC50 Summary for Free Drugs, MCF-7
Description: as §1

[2] = system: K562 human chronic myeloid leukaemia cells; test: K562 assay (MTT cytotoxicity); settings: drug incubation 1 hour or 96 hours
Description: K562 human chronic myeloid leukaemia cells were maintained in RPM1 1640 medium supplemented with 10% fetal calf serum and 2 mM glutamine at 37° C. in a humidified atmosphere containing 5% CO2 and were incubated with a specified dose of drug for 1 hour or 96 hours at 37° C. in the dark. The incubation was terminated by centrifugation (5 min, 300 g) and the cells were washed once with drug-free medium. Following the appropriate drug treatment, the cells were transferred to 96-well microtiter plates (10^4 cells per well, 8 wells per sample). Plates were then kept in the dark at 37° C. in a humidified atmosphere containing 5% CO2. The assay is based on the ability of viable cells to reduce a yellow soluble tetrazolium salt, 3-(4,5-dimethylthiazol-2-yl)-2,5-diphenyl-2H-tetrazolium bromide (MTT, Aldrich-Sigma), to an insoluble purple formazan precipitate. Following incubation of the plates for 4 days (to allow control cells to increase in number by approximately 10 fold), 20 μL of MTT solution (5 mg/mL in phosphate-buffered saline) was added to each well and the plates further incubated for 5 h. The plates were then centrifuged for 5 min at 300 g and the bulk of the medium pipetted from the cell pellet leaving 10-20 μL per well. […] The optical density was then read at a wavelength of 550 nm on a Titertek Multiscan ELISA plate reader, and a dose-response curve was constructed. […]

MCF-7 cells [3] = test: Free drug cytotoxicity assay, MCF-7 (Table 2); settings: Homo sapiens, MCF7; Table 2; read-out: IC50 Summary for Free Drugs, MCF-7
Description: (§2) For a 96-hour assay, cells cultured in log-phase growth were seeded for 24 h in 96-well plates containing 150 μL RPMI 1640 supplemented with 20% FBS. Serial dilutions of test article (i.e., free drug) in cell culture media were prepared at 4× working concentration; 50 μL of each dilution was added to the 96-well plates. Following addition of test article, the cells were incubated with test articles for 4 days at 37° C. Resazurin was then added to each well to achieve a 50 μM final concentration, and the plates were incubated for an additional 4 h at 37° C. The plates were then read for the extent of dye reduction on a Fusion HT plate reader (Packard Instruments, Meridien, Conn., USA) with excitation and emission wavelengths of 530 and 590 nm, respectively. The IC50 value, determined in triplicate, is defined here as the concentration that results in a 50% reduction in cell growth relative to untreated controls.
Referring to the following Table 2, the activity of compounds 28, 30 and 32 is shown on L428, 786-O, HEL, HL-60 and MCF-7 cells, as well as the activity for compound 19 on MCF-7 cells.

AML cell line HL60 = test: Free drug 96-hour resazurin cytotoxicity assay, HL60; settings: Homo sapiens, HL-60, Table 1, 96-hour assay, read-out: IC50 Summary for Free Drugs, HL60
Description: (§3) The cytotoxicity of various free drug compounds was tested on a renal cell cancer cell line, 786-O, a Hodgkin lymphoma cell line, L428 and two AML cell lines, HL60 and HEL.
as §2

[4] = system: renal cell cancer cell line, 786-O; test: Free drug 96-hour resazurin cytotoxicity assay, 786-O; settings: Homo sapiens, 786-0, Table 1, 96-hour assay, read-out: IC50 Summary for Free Drugs, 786-O
Description: as §3, §2

AML cell line HEL = test: Free drug 96-hour resazurin cytotoxicity assay, HEL; settings: Table 1, 96-hour assay, read-out: IC50 Summary for Free Drugs, HEL
Description: as §3, §2

[5] = system: Hodgkin lymphoma cell line, L428; test: Free drug 96-hour resazurin cytotoxicity assay, L428; settings: Homo sapiens, L-428, Table 1, 96-hour assay, read-out: IC50 Summary for Free Drugs, L428
Description: as §3, §2

## COc1ccc(C2=CN3C(=O)c4cc(OC)c(OCCCOc5cc6c(cc5OC)C(=O)N5C=C(c7ccc(N)cc7)C[C@H]5C=N6)cc4N=C[C@@H]3C2)cc1 [Compound 11, (S)-2-(4-aminophenyl)-7-methoxy-8-(3-((S)-7-methoxy-2-(4-methoxyphenyl)-5-oxo-5,11a-dihydro-1H-pyrrolo[2,1-c][1,4]benzodiazepine-8-yloxy)propoxy)-1H-pyrrolo[2,1-c][1,4]benzodiazepine-5(11aH)-one]
THP-1 cells
  pIC50: 9.00
786-O cells
  pIC50: 9.40
Caki-1 cells
  pIC50: 9.70
HEL cells
  pIC50: 10.52
HL-60 cells
  pIC50: 11.00
A2780 parental cell line
  pIC50: 4.93
TF1a cells
  pIC50: 9.00
MCF-7 cells [1]
  pIC50: 9.00

## COc1ccc(C2=CN3C(=O)c4cc(OC)c(OCCCCCOc5cc6c(cc5OC)C(=O)N5C=C(c7ccc(N)cc7)C[C@H]5C=N6)cc4N=C[C@@H]3C2)cc1 [Compound 13, (S)-2-(4-aminophenyl)-7-methoxy-8-(5-((S)-7-methoxy-2-(4-methoxyphenyl)-5-oxo-5,11a-dihydro-1H-pyrrolo[2,1-c][1,4]benzodiazepine-8-yloxy)pentyloxy)-H-pyrrolo[2,1-c][1,4]benzodiazepine-5(11aH)-one]
[2]
  pIC50: 10.52

## COc1ccc(C2=CN3C(=O)c4cc(OC)c(OCCCOc5cc6c(cc5OC)C(=O)N5C=C(c7cccc(N)c7)C[C@H]5C=N6)cc4N=C[C@@H]3C2)cc1 [Compound 19, (S)-2-(3-aminophenyl)-7-methoxy-8-(3-((S)-7-methoxy-2-(4-methoxyphenyl)-5-oxo-5,11a-dihydro-1H-pyrrolo[2,1-c][1,4]benzodiazepine-8-yloxy)propyloxy)-1H-pyrrolo[2,1-c][1,4]benzodiazepine-5(11aH)-one]
MCF-7 cells [3]
  pIC50: 8.30
AML cell line HL60
  pIC50: 9.22
[4]
  pIC50: 9.30
AML cell line HEL
  pIC50: 9.70
[5]
  pIC50: 9.00
